Source: US20140081017A1, “Histone Deacetylase Inhibitors for Enhancing Activity of Antifungal Agents” (METHYLGENE INC., priority 2012, published 2014)
Converted amounts (≈) assume the structure as drawn. Like-named read-outs stand apart in the source and are kept apart here.

Experiments:
[1] = tested on: Candida albicans; experiment: Minimal Inhibitory Concentration (MIC) assay, broth microdilution per CLSI; type: cell-based; details: Candida albicans, read-out: Minimum Inhibitory Concentrations against Yeast Isolates, Candida albicans;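 note: two read times 24 hr and 48 hr of incubation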
Method in brief: (§1)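 Read-out is visual: MIC is the lowest compound concentration preventing visible growth after approximately 24-48 hr at 35° C. Testing used CLSI microdilution in MOPS-buffered RPMI (pH 7.0) with serial 1:1 compound dilutions made in DMSO.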

[2] = tested on: Candida glabrata; experiment: as above; type: cell-based; details: Nakaseomyces glabratus, read-out: Minimum Inhibitory Concentrations against Yeast Isolates, Candida glabrata;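 note: two read times 24 hr and 48 hr of incubation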
Method in brief: as §1

[3] = tested on: Candida parapsilosis; experiment: as above; type: cell-based; details: Lodderomyces parapsilosis, read-out: Minimum Inhibitory Concentrations against Yeast Isolates, Candida parapsilosis
Method in brief: as §1

[4] = tested on: Candida parapsilosis; details: range not explained, cited from earlier work;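 for Minimum Inhibitory Concentrations against Yeast Isolates, Candida parapsilosis: two read times 24 hr and 48 hr of incubation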
[5] = tested on: C. glabrata; experiment: Checkerboard FIC assay in combination with fluconazole (MIC alone and in combination, FICI); type: cell-based, Candida glabrata; details: for FICI of combination resulting in fluconazole MIC of: 2 ug/mL / FICI of combination resulting in fluconazole MIC of: 4 ug/mL / FICI of combination resulting in fluconazole MIC of: 8 ug/mL: FICI calculated using a fluconazole MIC of 16 μg/mL; for FICI of combination resulting in fluconazole MIC of: 2 ug/mL (value in parenthesis) / FICI of combination resulting in fluconazole MIC of: 4 ug/mL (value in parenthesis) / FICI of combination resulting in fluconazole MIC of: 8 ug/mL (value in parenthesis): FICI using a fluconazole MIC of 128 μg/mL; for MIC: Nakaseomyces glabratus; for Concentration of Methylgene compound to synergize fluconazole MIC to 2 ug/mL / Concentration of Methylgene compound to synergize fluconazole MIC to 4 ug/mL / Concentration of Methylgene compound to synergize fluconazole MIC to 8 ug/mL: in combination with fluconazole; for Concentration of Methylgene compound to synergize fluconazole MIC to 2 ug/mL: fluconazole MIC lowered to 2 ug/mL; for Concentration of Methylgene compound to synergize fluconazole MIC to 4 ug/mL: fluconazole MIC lowered to 4 ug/mL; for Concentration of Methylgene compound to synergize fluconazole MIC to 8 ug/mL: fluconazole MIC lowered to 8 ug/mL; for Multiple of compound MIC to synergize fluconazole MIC to 2 ug/mL / Multiple of compound MIC to synergize fluconazole MIC to 4 ug/mL / Multiple of compound MIC to synergize fluconazole MIC to 8 ug/mL: concentration in combination as multiple of the compound's MIC alone; for Multiple of compound MIC to synergize fluconazole MIC to 2 ug/mL: fluconazole MIC 2 ug/mL; for Multiple of compound MIC to synergize fluconazole MIC to 4 ug/mL: fluconazole MIC 4 ug/mL; for Multiple of compound MIC to synergize fluconazole MIC to 8 ug/mL: fluconazole MIC 8 ug/mL
Method in brief: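 C. glabrata was tested by CLSI broth microdilution checkerboard, crossing 2-fold dilutions of compound with 2-fold dilutions of fluconazole. The medium was RPMI with 0.165 M MOPS at pH 7.0, inoculated from a 0.5 McFarland suspension diluted 1:100, then incubated about 48 h at 35 °C. Single-agent MICs gave the FIC and FICI values.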

[6] = tested on: C. glabrata; details: based on a prior study / previously observed; cited from earlier work
[7] = tested on: Candida albicans; details: 48 hr; range not explained; cited from earlier work
[8] = 24 hr reading (first value of cell 24 hr/48 hr)
[9] = 48 hr reading (second value of cell 24 hr/48 hr)
[10] = MIC of the example compound alone against C. glabrata in the checkerboard assay, approximately 48 hr, read-out: Methylgene MIC
[11] = test compound alone, C. glabrata, approx. 48 hr at 35° C., read-out: Compound MIC

Compound	MIC [1, 8]	MIC [1, 9]	MIC [2, 8]	MIC [2, 9]	MIC [3, 8]	MIC [3, 9]	FICI of combination resulting in fluconazole MIC of: 2 ug/mL ([5]; C. glabrata)	FICI of combination resulting in fluconazole MIC of: 4 ug/mL ([5]; C. glabrata)	FICI of combination resulting in fluconazole MIC of: 8 ug/mL ([5]; C. glabrata)	FICI of combination resulting in fluconazole MIC of: 2 ug/mL (value in parenthesis) ([5]; C. glabrata)	FICI of combination resulting in fluconazole MIC of: 4 ug/mL (value in parenthesis) ([5]; C. glabrata)	FICI of combination resulting in fluconazole MIC of: 8 ug/mL (value in parenthesis) ([5]; C. glabrata)	MIC [5, 10]	MIC [5, 11]	Concentration of Methylgene compound to synergize fluconazole MIC to 2 ug/mL ([5]; C. glabrata)	Concentration of Methylgene compound to synergize fluconazole MIC to 4 ug/mL ([5]; C. glabrata)	Concentration of Methylgene compound to synergize fluconazole MIC to 8 ug/mL ([5]; C. glabrata)	Multiple of compound MIC to synergize fluconazole MIC to 2 ug/mL [5]	Multiple of compound MIC to synergize fluconazole MIC to 4 ug/mL [5]	MIC range in parentheses below the comparator's MIC, Candida parapsilosis ([4]; 24 hr)	other results
CC[C@H](C)C[C@H](C)CCCCCCCCC(=O)N[C@H]1C[C@@H](O)[C@@H](NCCN)NC(=O)[C@@H]2[C@@H](O)CCN2C(=O)[C@H]([C@H](O)CCN)NC(=O)[C@H]([C@H](O)[C@@H](O)c2ccc(O)cc2)NC(=O)[C@@H]2C[C@@H](O)CN2C(=O)[C@H]([C@@H](C)O)NC1=O [Caspofungin, reference compound]	0.06 µg/mL (≈ 0.0549 µM)	0.06 µg/mL (≈ 0.0549 µM)	0.12 µg/mL (≈ 0.11 µM)	0.12 µg/mL (≈ 0.11 µM)	0.5 µg/mL (≈ 0.457 µM)	0.5 µg/mL (≈ 0.457 µM)	–	–	–	–	–	–	–	–	–	–	–	–	–	0.25 to 1 µg/mL	–
O=C(Cc1ccc(CCC(F)Cc2ccccc2)cc1)NO (stereo not drawn) [Example 60, 2-(4-(3-fluoro-4-phenylbutyl)phenyl)-N-hydroxyacetamide]	4 µg/mL (≈ 13.3 µM)	4 µg/mL (≈ 13.3 µM)	2 µg/mL (≈ 6.64 µM)	2 µg/mL (≈ 6.64 µM)	4 µg/mL (≈ 13.3 µM)	8 µg/mL (≈ 26.5 µM)	0.563	0.625	0.500	0.516	0.531	0.313	2 µg/mL	2 µg/mL	1 µg/mL	1 µg/mL	0.5 µg/mL	(½x)	(½x)	–	Multiple of compound MIC to synergize fluconazole MIC to 8 ug/mL [5]: (¼x)
OC(Cn1cncn1)(Cn1cncn1)c1ccc(F)cc1F [Fluconazole, reference compound]	0.25 µg/mL (≈ 0.816 µM)	1 µg/mL (≈ 3.27 µM)	4 µg/mL (≈ 13.1 µM)	8 µg/mL (≈ 26.1 µM)	2 µg/mL (≈ 6.53 µM)	4 µg/mL (≈ 13.1 µM)	–	–	–	–	–	–	–	–	–	–	–	–	–	0.5 to 4 µg/mL	MIC of fluconazole alone against both test isolates [6]: > 64 µg/mL; MIC range in parentheses below the comparator's MIC, Candida albicans [7]: (NA/0.25-1) ug/mL; MIC range in parentheses below the comparator's MIC, Candida parapsilosis ([4]; 48 hr): 1 to 4 µg/mL; MIC ([5]; C. glabrata, this study, checkerboard assay, read-out: MIC of fluconazole alone against both test isolates): > 8 µg/mL

The next lines start with results.

MIC [1, 8]	MIC [1, 9]	MIC [2, 8]	MIC [2, 9]	MIC [3, 8]	MIC [3, 9]	FICI of combination resulting in fluconazole MIC of: 2 ug/mL ([5]; C. glabrata)	FICI of combination resulting in fluconazole MIC of: 4 ug/mL ([5]; C. glabrata)	FICI of combination resulting in fluconazole MIC of: 8 ug/mL ([5]; C. glabrata)	FICI of combination resulting in fluconazole MIC of: 2 ug/mL (value in parenthesis) ([5]; C. glabrata)	FICI of combination resulting in fluconazole MIC of: 4 ug/mL (value in parenthesis) ([5]; C. glabrata)	FICI of combination resulting in fluconazole MIC of: 8 ug/mL (value in parenthesis) ([5]; C. glabrata)	MIC [5, 10]	MIC [5, 11]	Concentration of Methylgene compound to synergize fluconazole MIC to 2 ug/mL ([5]; C. glabrata)	Concentration of Methylgene compound to synergize fluconazole MIC to 4 ug/mL ([5]; C. glabrata)	Concentration of Methylgene compound to synergize fluconazole MIC to 8 ug/mL ([5]; C. glabrata)	Multiple of compound MIC to synergize fluconazole MIC to 2 ug/mL [5]	Multiple of compound MIC to synergize fluconazole MIC to 4 ug/mL [5]	Compound	MIC range in parentheses below the comparator's MIC, Candida parapsilosis ([4]; 24 hr)	other results
> 64 µg/mL	> 64 µg/mL	16 µg/mL (≈ 53.4 µM)	64 µg/mL (≈ 214 µM)	> 64 µg/mL	> 64 µg/mL	0.313	0.375	0.375	0.266	0.281	0.188	> 16 µg/mL	> 16 µg/mL	8 µg/mL	8 µg/mL	4 µg/mL	–	–	O=C(Cc1ccc(C(O)CCCc2ccccc2)cc1)NO (stereo not drawn) [Example 59, N-hydroxy-2-(4-(1-hydroxy-4-phenylbutyl)phenyl)acetamide]	–	–
4 µg/mL (≈ 13.3 µM)	8 µg/mL (≈ 26.5 µM)	2 µg/mL (≈ 6.64 µM)	4 µg/mL (≈ 13.3 µM)	8 µg/mL (≈ 26.5 µM)	16 µg/mL (≈ 53.1 µM)	0.313	0.375	0.375	0.266	0.281	0.188	4 µg/mL	4 µg/mL	1 µg/mL	1 µg/mL	0.5 µg/mL	(¼x)	(¼x)	O=C(Cc1ccc(C(F)CCCc2ccccc2)cc1)NO (stereo not drawn) [Example 61, 2-(4-(1-fluoro-4-phenylbutyl)phenyl)-N-hydroxyacetamide]	–	Multiple of compound MIC to synergize fluconazole MIC to 8 ug/mL [5]: (⅛x)
